Tests used:
mTOR = mTOR (Homo sapiens (Human), UniProt P42345); assay: In vitro mTOR Lanthascreen assay; assay type: biochemical; settings: average if run more than once
Source text: The Invitrogen (Carlsbad, Calif.) mammalian target of rapamycin (mTOR) Lanthascreen assay can be used to quantitate mTOR kinase activity in an in vitro setting. Active mTOR phosphorylates eukaryotic translation initiation factor 4E binding protein 1 (4E-BP1) on residue threonine 46. This phosphorylation event can be detected with a phospho-specific terbium (Tb) labeled Ab, in turn bringing the Tb label in close proximity to the GFP tagged 4E-BP 1 and allowing for time-resolved fluorescence resonance energy transfer (TR-FRET), which correlates 4E-BP1 phosphorylation levels with mTOR kinase activity.
Enzyme reaction buffer can be prepared in deionized water containing 50 mM HEPES (pH 7.5), 0.01% Polysorbate 20, 1 mM EGTA, and 10 mM MnCl2.
Dilutions of the compound to be tested can be prepared in 96-well polypropylene plates (Fisher Scientific, Waltham, Mass.). One row represents a 10-point dose of compound diluted 1:3 in enzyme reaction buffer and 20% dimethyl sulfoxide (DMSO). The top concentration for all compounds is 36 μM. Wells 6 and 12 can serve as the no compound (DMSO only) and high compound controls.
An mTOR substrate solution can prepared in enzyme reaction buffer containing 1600 nM green fluorescent protein tagged eukaryotic translation initiation factor 4E binding protein 1 (GFP-4E-BP1) (Invitrogen, Carlsbad, Calif.) and 28 uM adenosine triphosphate (ATP) (Calbiochem, Gibbstown, N.J.).
mTOR enzyme (Invitrogen, Carlsbad, Calif.) can be diluted in enzyme reaction buffer to a working concentration of 100 ng/mL.
The enzyme assay can be run in 384 well low volume assay plates (Corning, Corning, N.Y.). 2.5 uL of substrate solution containing GFP-4E-BP1 and ATP can be added to appropriate wells in the assay plate followed by 2.5 μL of compound dilutions. 5 μL of appropriately diluted mTOR enzyme can be added and the reaction allowed to proceed for 1 hour at room temperature. Final reagent concentrations in the enzyme assay are 50 ng/mL mTOR, 400 nM GFP-4E-BP1, and 7 μM ATP.
The enzyme assay can be terminated upon the addition of 10 μL of 20 mM EDTA and 4 nM Tb-labeled anti-phospho-4E-BP1 [T46] antibody (Invitrogen, Carlsbad, Calif.). The assay plate can then be incubated at room temperature for 1 hour and results read on a Tecan Safire II plate reader (Tecan, Männedorf, Switzerland).

PI3Kα = PI3Kα (Homo sapiens (Human), UniProt P42336); assay: In vitro PI3K AlphaScreen assay; assay type: biochemical; settings: average if run more than once
Chain of PI3Kα (P42336 whole entry): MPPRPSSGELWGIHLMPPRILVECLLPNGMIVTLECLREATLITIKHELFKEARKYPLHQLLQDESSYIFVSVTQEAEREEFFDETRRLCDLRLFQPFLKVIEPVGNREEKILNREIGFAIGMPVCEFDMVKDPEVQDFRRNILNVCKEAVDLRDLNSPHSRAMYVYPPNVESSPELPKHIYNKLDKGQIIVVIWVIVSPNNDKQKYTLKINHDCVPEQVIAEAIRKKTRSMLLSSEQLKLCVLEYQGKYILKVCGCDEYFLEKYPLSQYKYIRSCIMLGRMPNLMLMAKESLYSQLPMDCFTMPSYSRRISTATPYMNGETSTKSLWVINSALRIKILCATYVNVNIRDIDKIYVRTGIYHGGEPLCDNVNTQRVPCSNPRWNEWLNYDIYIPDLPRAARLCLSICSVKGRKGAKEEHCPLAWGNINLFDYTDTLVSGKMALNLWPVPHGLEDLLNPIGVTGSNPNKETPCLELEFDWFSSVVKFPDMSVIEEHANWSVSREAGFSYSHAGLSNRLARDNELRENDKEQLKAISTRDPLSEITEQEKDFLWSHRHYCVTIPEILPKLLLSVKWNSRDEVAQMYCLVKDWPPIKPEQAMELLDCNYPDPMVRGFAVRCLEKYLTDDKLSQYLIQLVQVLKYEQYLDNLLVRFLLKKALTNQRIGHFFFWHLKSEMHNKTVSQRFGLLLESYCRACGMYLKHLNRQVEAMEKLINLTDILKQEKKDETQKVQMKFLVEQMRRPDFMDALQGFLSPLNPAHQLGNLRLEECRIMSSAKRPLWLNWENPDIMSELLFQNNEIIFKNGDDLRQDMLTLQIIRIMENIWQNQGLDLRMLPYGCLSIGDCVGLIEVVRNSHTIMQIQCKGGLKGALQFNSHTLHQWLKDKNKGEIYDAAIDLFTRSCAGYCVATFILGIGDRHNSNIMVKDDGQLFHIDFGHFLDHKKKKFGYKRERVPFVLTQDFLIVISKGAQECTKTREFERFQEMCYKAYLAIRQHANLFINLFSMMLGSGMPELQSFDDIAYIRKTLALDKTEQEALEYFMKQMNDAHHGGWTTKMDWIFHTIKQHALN
Chain of PI3Kα (P27986 whole entry partner): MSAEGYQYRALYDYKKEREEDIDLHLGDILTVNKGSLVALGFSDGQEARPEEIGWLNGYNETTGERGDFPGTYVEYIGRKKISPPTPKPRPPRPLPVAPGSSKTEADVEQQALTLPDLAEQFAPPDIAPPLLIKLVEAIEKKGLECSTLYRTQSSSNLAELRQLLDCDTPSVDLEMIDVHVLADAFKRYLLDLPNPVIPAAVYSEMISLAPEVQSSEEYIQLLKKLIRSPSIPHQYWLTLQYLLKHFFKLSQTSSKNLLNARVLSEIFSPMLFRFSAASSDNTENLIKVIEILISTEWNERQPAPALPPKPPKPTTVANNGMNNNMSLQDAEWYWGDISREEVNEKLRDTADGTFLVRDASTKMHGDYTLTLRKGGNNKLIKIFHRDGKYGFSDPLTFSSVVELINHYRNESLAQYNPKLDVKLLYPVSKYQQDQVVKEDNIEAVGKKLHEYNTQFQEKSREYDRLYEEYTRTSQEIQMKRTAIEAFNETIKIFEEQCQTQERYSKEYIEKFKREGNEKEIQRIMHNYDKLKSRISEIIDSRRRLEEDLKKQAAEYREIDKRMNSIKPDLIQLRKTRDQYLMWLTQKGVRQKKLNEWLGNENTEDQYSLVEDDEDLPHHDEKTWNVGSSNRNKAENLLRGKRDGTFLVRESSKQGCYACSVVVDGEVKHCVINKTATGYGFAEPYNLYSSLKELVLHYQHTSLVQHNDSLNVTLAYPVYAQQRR
Method: In Vitro PI3K AlphaScreen® Assay
The PI3K AlphaScreen® assay (PerkinElmer, Waltham, Mass.) measures the activity of a panel of four phosphoinositide 3-kinases: PI3Kα, PI3Kβ, PI3Kγ, and PI3Kδ. Each of these enzymes phosphorylates the 3′-hydroxyl group on phosphatidylinositiol (4,5)-bisphosphate (PIP2) to produce phosphatidylinositol (3,4,5)-trisphosphate (PIP3). This phosphorylation activity is measured using a GST-tagged PIP3 binding protein (Echelon Biosciences, Salt Lake City, Utah), an anti-GST-tagged Acceptor bead, and streptavidin-Donor bead. […] In the absence of this interaction, proximity of the Donor and Acceptor beads is decreased, producing a loss of luminescent signal which is inversely proportional to PI3K activity.
The enzyme reaction buffer is made using sterile water (Baxter, Deerfield, Ill.) and 50 mM Tris HCl pH 7, 14 mM MgCl2, 2 mM sodium cholate, and 100 mM NaCl. 2 mM DTT is added fresh the day of the experiment. The AlphaScreen® reaction buffer is made using sterile water and 10 mM Tris HCl pH 7.5, 150 mM NaCl, 0.10% Tween 20, and 30 mM EDTA. 1 mM DTT is added fresh the day of the experiment.
The source plates for this assay are 384-well Greiner clear polypropylene plates containing test compounds at 5 mM and diluted 1:2 over 22 points. Columns 23 and 24 contain only DMSO as these are designated for positive and negative controls. Source plates are replicated into 384-well Optiplates (PerkinElmer, Waltham, Mass.), 0.5 μL/well, to make assay-ready plates.
The different PI3K isoforms are each diluted in enzyme reaction buffer to 2× working solutions. […] Two different 2× substrate solutions are made in enzyme reaction buffer. In one solution, PI(4,5)P2 (Echelon Biosciences, Salt Lake City, Utah) is diluted to 10 μM and ATP is diluted to 20 μM. This solution is used in the assays testing PI3Kα and PI3Kβ. In a second solution, PI(4,5)P2 is diluted to 10 μM and ATP is diluted to 8 μM. This solution is used in the assays testing PI3Kγ and PI3Kδ.
The AlphaScreen® reaction solutions are made using beads from the anti-GST AlphaScreen® kit (PerkinElmer, Waltham, Mass.). Two solutions are made in Alphascreen reaction buffer to 4× working concentrations. In one solution, biotinylated-IP4 (Echelon Biosciences, Salt Lake City, Utah) is diluted to 40 nM and streptavadin-Donor Beads are diluted to 80 μg/mL. In the second solution, PIP3-binding protein (Echelon Biosciences, Salt Lake City, Utah) is diluted to 40 nM and anti-GST-Acceptor Beads are diluted to 80 μg/mL. 10 μL/well of enzyme reaction buffer is added to Column 24 of the assay ready plates in place of enzyme. This is done for plates in the PI3Kα, β, and δ assays.
Using a 384-well dispensing Multidrop (Titertek, Huntsville, Ala.), 10 μL/well of 2× enzyme (PI3Kα, β, δ) is added to Columns 1-23 of the appropriate assay ready plates (for PI3Kγ 10 μL is added to Columns 1-24). 10 μL/well of the appropriate substrate solution (the solution with 20 μM ATP for PI3Kα and β assays, and the solution with […] for PI3Kγ and δ assays) is then added to Columns 1-24 of the plates. Plates are then incubated at room temperature for 20 minutes.
In the dark, 10 μL/well of the Donor Bead solution is added to Columns 1-24 of the plates to quench the enzyme reaction. The plates are incubated at room temperature for 30 minutes. Still in the dark, 10 μL/well of the Acceptor Bead solution is also added to Columns 1-24 of the plates. The plates are then incubated in the dark for 1.5 hours. The plates are read on an Envision Multilabel Plate Reader (PerkinElmer, Waltham, Mass.) with a 680 nm excitation filter and a 520-620 nm emission filter.
Activity data for the compounds tested in the assay is provided in Table 1 under the column heading PI3Kα AlphaScreen®.

Chain of mTOR (P42345 1360-2549): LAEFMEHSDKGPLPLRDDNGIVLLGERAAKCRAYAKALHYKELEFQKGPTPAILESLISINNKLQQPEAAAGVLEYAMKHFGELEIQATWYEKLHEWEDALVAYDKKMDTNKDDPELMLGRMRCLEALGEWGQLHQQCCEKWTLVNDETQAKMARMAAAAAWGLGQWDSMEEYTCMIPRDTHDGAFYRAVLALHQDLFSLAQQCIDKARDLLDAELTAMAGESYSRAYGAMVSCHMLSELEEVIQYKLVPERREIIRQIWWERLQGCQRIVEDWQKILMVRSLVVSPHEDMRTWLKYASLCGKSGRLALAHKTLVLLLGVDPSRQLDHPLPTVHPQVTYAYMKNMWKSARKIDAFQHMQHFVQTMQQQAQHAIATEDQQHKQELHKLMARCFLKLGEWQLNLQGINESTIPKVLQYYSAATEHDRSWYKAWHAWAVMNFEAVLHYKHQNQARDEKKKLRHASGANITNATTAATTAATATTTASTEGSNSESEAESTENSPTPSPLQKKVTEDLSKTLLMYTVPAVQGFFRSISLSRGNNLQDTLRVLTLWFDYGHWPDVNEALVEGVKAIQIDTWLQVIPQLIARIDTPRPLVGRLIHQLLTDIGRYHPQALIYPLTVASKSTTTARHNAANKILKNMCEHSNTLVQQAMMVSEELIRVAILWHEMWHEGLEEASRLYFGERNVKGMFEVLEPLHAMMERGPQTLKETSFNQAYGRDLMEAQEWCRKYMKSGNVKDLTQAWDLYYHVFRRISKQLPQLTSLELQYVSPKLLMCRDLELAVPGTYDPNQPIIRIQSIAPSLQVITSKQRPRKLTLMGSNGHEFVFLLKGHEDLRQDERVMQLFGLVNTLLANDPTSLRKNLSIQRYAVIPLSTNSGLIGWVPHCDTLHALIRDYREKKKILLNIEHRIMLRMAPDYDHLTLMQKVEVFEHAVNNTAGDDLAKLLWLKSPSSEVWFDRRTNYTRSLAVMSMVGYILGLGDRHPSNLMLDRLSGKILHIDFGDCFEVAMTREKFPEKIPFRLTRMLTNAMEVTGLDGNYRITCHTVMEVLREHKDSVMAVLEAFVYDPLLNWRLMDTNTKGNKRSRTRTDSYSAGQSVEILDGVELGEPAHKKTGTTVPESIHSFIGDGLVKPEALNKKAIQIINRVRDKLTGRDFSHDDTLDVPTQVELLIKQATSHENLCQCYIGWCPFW

| Structure (SMILES) | IC50 (mTOR) [nM] | Ki (PI3Kα) [nM] |
| --- | --- | --- |
| CN(C)S(=O)(=O)Nc1cc(-c2cnc3ccc(-c4ccncc4)cn23)cnc1Cl [Example 18, N-(2-Chloro-5-(6-(pyridin-4-yl)imidazo[1,2-a]pyridin-3-yl)pyridin-3-yl)dimethylaminosulfonamide] | 15 | 1 |
| COc1cc(-c2cnc3ccc(N4CCOCC4)cn23)cnc1OC [Example 16, 3-(5,6-Dimethoxy-3-pyridinyl)-6-(4-morpholinyl)imidazo[1,2-a]pyridine] | 4520 | 1080 |
| O=S(=O)(Nc1cc(-c2cnc3ccc(Br)cn23)cnc1Cl)c1ccc(F)cc1 [Example 6, N-(5-(6-Bromoimidazo[1,2-a]pyridin-3-yl)-2-chloro-3-pyridinyl)-4-fluorobenzenesulfonamide] | 39 | 6 |
| CS(=O)(=O)Nc1cc(-c2cnc3cc(-c4cccnc4)ccn23)cnc1Cl [Example 20, N-(2-Chloro-5-(7-(pyridin-3-yl)imidazo[1,2-a]pyridin-3-yl)pyridin-3-yl)methanesulfonamide] | 32 | 5 |
| CN(C)S(=O)(=O)Nc1cc(-c2cnc3cc(-c4ccncc4)ccn23)cnc1Cl [Example 21, N′-(2-Chloro-5-(7-(4-pyridinyl)imidazo[1,2-a]pyridin-3-yl)-3-pyridinyl)-N,N-dimethylsulfamide] | 258 | 15 |
| O=S(=O)(Nc1cc(-c2cnc3ccc(-c4ccncc4)cn23)cnc1Cl)c1ccc(F)cc1 [Example 7, N-(2-Chloro-5-(6-(4-pyridinyl)imidazo[1,2-a]pyridin-3-yl)-3-pyridinyl)-4-fluorobenzenesulfonamide] | 36 | 2 |
| CN(C)S(=O)(=O)Nc1cc(-c2cnc3ccc(-c4ccnc(C(F)(F)F)c4)cn23)cnc1Cl [Example 19, N-(2-Chloro-5-(6-(2-(trifluoromethyl)pyridin-4-yl)imidazo[1,2-a]pyridin-3-yl)pyridin-3-yl)dimethylaminosulfonamid] | 15 | 1 |
| O=S(=O)(Nc1cc(-c2cnc3ccc(Cl)nn23)cnc1Cl)c1ccc(F)cc1 [Example 25, N-(2-Chloro-5-(6-chloroimidazo[1,2-b]pyridazin-3-yl)pyridin-3-yl)-4-fluorobenzenesulfonamide] | 102 | 22 |
| O=S(=O)(Nc1cc(-c2cnc3ccc(-c4cccnc4)cn23)cnc1Cl)c1ccc(F)cc1 [Example 8, N-(2-Chloro-5-(6-(3-pyridinyl)imidazo[1,2-a]pyridin-3-yl)-3-pyridinyl)-4-fluorobenzenesulfonamide] | 32 | 1 |
| COc1cc(-c2cnc3ccccn23)cnc1OC [Example 10, 3-(5,6-Dimethoxy-3-pyridinyl)imidazo[1,2-a]pyridine] | > 50000 | > 1500 |
| CN(C)S(=O)(=O)Nc1cc(-c2cnc3cc(-c4cccnc4)ccn23)cnc1Cl [Example 22, N′-(2-Chloro-5-(7-(3-pyridinyl)imidazo[1,2-a]pyridin-3-yl)-3-pyridinyl)-N,N-dimethylsulfamide] | 157 | 21 |
| COc1cc(-c2cnc3ccc(Br)cn23)cnc1OC [Example 11, 6-Bromo-3-(5,6-dimethoxy-3-pyridinyl)imidazo[1,2-a]pyridine] | 2170 | 779 |
| Cc1nc2ccc(Br)cn2c1-c1cnc(Cl)c(NS(=O)(=O)c2ccc(F)cc2)c1 [Example 5, N-(5-(6-Bromo-2-methylimidazo[1,2-a]pyridin-3-yl)-2-chloro-3-pyridinyl)-4-fluorobenzenesulfonamide] | 848 | 20 |
| O=S(=O)(Nc1cc(-c2cnc3ccccn23)cnc1Cl)c1ccc(F)cc1 [Example 3, N-(2-Chloro-5-imidazo[1,2-a]pyridin-3-yl-3-pyridinyl)-4-fluorobenzenesulfonamide] | 155 | 28 |
| Cc1cc2ncc(-c3cnc(Cl)c(NS(=O)(=O)N(C)C)c3)n2cc1-c1ccncc1 [Example 23, N′-(2-Chloro-5-(7-methyl-6-(4-pyridinyl)imidazo[1,2-a]pyridin-3-yl)-3-pyridinyl)-N,N-dimethylsulfamide] | 18 | 4 |
| Cc1ccn2c(-c3cnc(Cl)c(NS(=O)(=O)c4ccc(F)cc4)c3)cnc2c1 [Example 4, N-(2-Chloro-5-(7-methylimidazo[1,2-a]pyridin-3-yl)-3-pyridinyl)-4-fluorobenzenesulfonamide] | – | 19 |
| COc1cc(-c2cnc3ccc(N4CCOC4=O)cn23)cnc1OC [Example 13, 3-(3-(5,6-Dimethoxy-3-pyridinyl)imidazo[1,2-a]pyridin-6-yl)-1,3-oxazolidin-2-one] | 9660 | > 1500 |
| COc1cc(-c2cnc3ccc(-c4ccncc4)cn23)cnc1OC [Example 12, 3-(5,6-Dimethoxy-3-pyridinyl)-6-(4-pyridinyl)imidazo[1,2-a]pyridine] | 3750 | 626 |
| O=S(=O)(Nc1cc(-c2cnc3ccc(N4CCOCC4)cn23)cnc1Cl)c1ccc(F)cc1 [Example 9, N-(2-Chloro-5-(6-(4-morpholinyl)imidazo[1,2-a]pyridin-3-yl)-3-pyridinyl)-4-fluorobenzenesulfonamide] | 364 | 4 |

From patent US8729074B2, “Inhibitors of PI3 kinase” (Amgen Inc., priority 2009, dated 2014)
